Laboratory results: PMC9296036, “A peptide interfering with the dimerization of oncogenic KITENIN protein and its stability suppresses colorectal tumour progression” (Clinical and Translational Medicine, 2022)
Ends that are not written are not given here.

System: Caco2/KITENIN-V5 cells
Assay: Autophagosome staining (Cyto-ID) in Caco2/KITENIN-V5 cells
Type: cell-based
Conditions: KDIP 5 μM, similar to rapamycin positive control
Procedure: To test whether KDIP induces autophagy in KITENIN‐expressing Caco2 cells, cells were grown on coverslips for 24 h. Cells were washed with PBS and then stained with Cyto‐ID green fluorescence reagents (Enzo Life Sciences, Plymouth Meeting, PA) for 1 h at 37°C in a cell culture incubator. Cells were washed with PBS and mounted with […] mounting medium containing nuclear DAPI (Vector Lab). Cells were imaged by confocal microscope.
FIGURE 3 RACK1 binds to KAI1 C‐terminal interacting tetraspanin (KITENIN) and KITENIN dimerization‐interfering peptide (KDIP) stimulates the degradation of KITENIN by inducing increased binding of RACK1 to KITENIN. (A) RACK1 specifically binds to KITENIN. Caco2/KITENIN‐V5 cells were transfected with RACK1‐GFP for 48 h, immunoprecipitated with anti‐GFP antibody and immunoblotted with anti‐V5 antibody to detect KITENIN bound with RACK1 (left panel). […] The proteins in whole‐cell lysate (WCL) were detected with the indicated antibody. […] Caco2 cells were transfected with KITENIN‐V5 and/or RACK1‐GFP (left) or KITENIN‐V5 and/or si‐RACK1 (right), and their expression after treatment with KDIP (1 μM, 24 h) was detected with the indicated antibody (upper) or subjected to invasion assay (lower). […] Caco2/KITENIN‐V5 cells were treated with KDIP for 24 h and assessed by immunoblot analyses using an anti‐KITENIN, an anti‐p62, or an anti‐LC3B antibody (left panel). […]

YARVRRRGPRRWRLVSDEAV [KDIP]
formation of the autophagosome (in words): increased
